Series [1] has as its system OXA-181 carbapenemase-producing Klebsiella Pneumoniae. The series can be described thus: In vitro synergistic inhibitory concentration (SIC) assay, broth microdilution MIC. The following applies: OXA-181, 7 strains; for MIC50 / MIC90: Klebsiella pneumoniae; for drug resistance rate / sensitive rate: by the S/R criteria. The class given is cell-based. Here is the method: (§1) The minimum inhibitory concentration (MIC) of the compound of formula (I) against clinically isolated carbapenemase-producing strains was determined by the broth microdilution method.
(§2) 1. Drug susceptibility test: the MIC of commonly used antibacterial drugs against clinically isolated bacteria was determined by the broth microdilution method according to the antimicrobial susceptibility test method described in the 2016 edition of the U.S. Clinical and Laboratory Standards Institute (CLSI) document.
2. […]
(§3) 4. Quality control strains: the quality control strains for the drug susceptibility test included Escherichia coli ATCC 25922 and ATCC 35218.

For series [2], the system named is KPC-2 carbapenemase-producing Klebsiella Pneumoniae. The series is described as above. The class given is cell-based. Particulars: for drug resistance rate / sensitive rate: by the S/R criteria; for MIC90 / MIC50: Klebsiella pneumoniae. The procedure:
as §1, §2
(§4) 2. Strains: 8 KPC-2 carbapenemase-producing strains, 8 NDM-1 metalloenzyme-producing strains, 6 OXA carbapenemase-producing strains, and all strains were clinically isolated Klebsiella pneumoniae.
as §3

Series [3] concerns NDM-1 carbapenemase-producing Klebsiella Pneumoniae. Described as above. Particulars: NDM-1, 8 strains; for MIC50 / MIC90: Klebsiella pneumoniae; for MIC50 / MIC90 / MIC range: enzyme inhibitor fixed at 4 g/mL (so in the source); for drug resistance rate / sensitive rate: by the S/R criteria. The class given is cell-based. Here is the method: as §1, §2, §4, §3
Series [4] can be described thus: Hygroscopicity by dynamic vapor sorption (DVS). The class given is physicochemical. The procedure: 1.4 Dynamic Vapor Sorption (DVS) Instrument model: SMS DVS Advantage dynamic vapor sorption analyzer Detection conditions: samples (10 mg to 15 mg) were placed in a DVS sample tray for detection. The detailed DVS parameters are as follows: Temperature: 25° C. Equilibrium: dm/dt=0.01%/min (shortest: 10 min, longest: 180 min) Drying: 120 minutes at 0% RH RH (%) gradient for testing: 10% RH (%) gradient range for testing: 0%-90%-0% The hygroscopicity was evaluated using the following scales: [table] Experimental Method: a sample (10-15 mg) was placed in a DVS sample tray for testing, and analyzed by dynamic vapor sorption (DVS) method.

The nature of series [5]: Solubility test of the crystal form A. The class given is physicochemical. Particulars: thermodynamic from solid, room temperature. The procedure: Experimental Method: about 2.0 mg sample was weighed and placed into a 1.5 mL borosilicate glass bottle, followed by addition of the following solvents with a pipetting gun respectively, and appropriate ultrasonic treatment was performed for dissolving. The test was carried out at room temperature, and the dissolution was detected by naked eye.

A short description of series [6]: Thermal gravimetric analysis (TGA). The class given is physicochemical. Here is the method:
1.3 Thermal Gravimetric Analyzer (TGA)
Instrument Model: TA Q5000 thermal gravimetric analyzer
Detection method: samples (2 mg to 5 mg) were placed in a TGA platinum crucible for detection, and heated from room temperature to 210° C. with a heating rate of 10° C./min under the condition of 25 mL/min N2.

Where [7] appears, read: enzyme inhibitor fixed at 4 g/mL (so in the source).
Setting [8] is: KPC-2, 8 strains, enzyme inhibitor fixed at 4 g/mL (so in the source).

Structures are written as SMILES. ≈ marks a conversion by molar mass, not a printed value. Where two headings read alike, the source gives them in different places.

For the compound `C[C@@H](O)[C@H]1C(=O)N2C(C(=O)O)=C(S[C@@H]3CN[C@H](C(=O)N(C)C)C3)[C@H](C)[C@H]12` [Meropenem], the MIC50 in series [1] (setting [7]) amounted to 0.5 µg/mL; in series [2] (setting [8]), 64 µg/mL; in series [3], 4 µg/mL. In addition, the figures for the MIC90 in series [1] (setting [7]), in series [2] and in series [3] were 2 µg/mL, 128 µg/mL and 32 µg/mL, respectively. For the same compound, the drug resistance rate in series [1] stood at 0; in series [2] (KPC-2, 8 strains), 100; in series [3], 75. Besides, the sensitive rate in series [1] is recorded as 85.7; in series [2] (KPC-2, 8 strains), 0; in series [3], 0. The MIC range is 0.5 to 2 µg/mL in series [1] (setting [7]) and 2 to 32 µg/mL in series [3].

As to `CC(C)(O/N=C(\C(=O)N[C@@H]1C(=O)N2C(C(=O)[O-])=C(C[n+]3ccccc3)CS[C@H]12)c1csc(N)n1)C(=O)O` [Ceftazidime], the MIC50 in series [1] (setting [7]), in series [2] (setting [8]) and in series [3] was above 128 µg/mL each time. Moreover, the MIC90 in series [1] (setting [7]) was above 128 µg/mL; in series [2] (KPC-2, 8 strains, enzyme inhibitor fixed at 4 g/mL (so in the source), read-out: MIC90) it was above 128 µg/mL; in series [3], above 128 µg/mL. In addition, the drug resistance rate in series [1] is reported as 100; in series [2] (KPC-2, 8 strains), 100; in series [3], 100. In addition, the sensitive rate in series [1] is recorded as 0; in series [2] (KPC-2, 8 strains), 0; in series [3], 0. Besides, the MIC range in series [2] (setting [8]) was 64 to 128 µg/mL; in series [3], above 128 µg/mL.

As for `C[C@H]1[C@H](NC(=O)/C(=N\OC(C)(C)C(=O)O)c2csc(N)n2)C(=O)N1S(=O)(=O)O` [Aztreonam], the MIC50 in series [3] came out at 64 µg/mL.

`N=C(N)NOCCONC(=O)C1CCC2CN1C(=O)N2OS(=O)(=O)O` (centres unmarked): the “hygroscopic weight gain ΔW” value in series [4] (DVS, 25° C./80% RH) was found to be 0.2910%. Further, the hygroscopicity scale result in series [4] (DVS, 25° C./80% RH) was “low hygroscopicity”. The “crystal form after DVS (XRPD)” value in series [4] (after DVS test) is reported as “the crystal form has not changed”. In addition, the solubility is 20500 to 34200 µg/mL (≈ 53.6 to 89.4 mM) in series [5] (aqueous with cosolvent or surfactant or cyclodextrin, Acetone-water (1:2)); above 103000 µg/mL in series [5] (aqueous with cosolvent or surfactant or cyclodextrin, Acetonitrile-water (1:1)); 10100 to 20200 µg/mL (≈ 26.4 to 52.8 mM) in series [5] (aqueous with cosolvent or surfactant or cyclodextrin, Ethanol-water (1:1)); below 2000 µg/mL in series [5] (aqueous with cosolvent or surfactant or cyclodextrin, Ethanol-water (3:1)); 6800 to 10200 µg/mL (≈ 17.8 to 26.7 mM) in series [5] (aqueous with cosolvent or surfactant or cyclodextrin, Isopropanol-water (1:1)); 4100 to 5200 µg/mL (≈ 10.7 to 13.6 mM) in series [5] (aqueous with cosolvent or surfactant or cyclodextrin, Methanol-water (1:1)). Moreover, the solubility in series [5] (aqueous with cosolvent or surfactant or cyclodextrin, Methanol-water (3:1)) is 2100 to 2600 µg/mL (≈ 5.49 to 6.8 mM); in series [5] (organic solvent or mixture, 1,4-Dioxane) it was below 2100 µg/mL; in series [5] (organic solvent or mixture, 2-Methyltetrahydrofuran) it was below 2000 µg/mL; in series [5] (organic solvent or mixture, Acetone), below 1900 µg/mL; in series [5] (organic solvent or mixture, Acetonitrile) it was below 1900 µg/mL; in series [5] (organic solvent or mixture, Butanone) it was below 2000 µg/mL. The solubility in series [5] (organic solvent or mixture, Cyclohexane) was below 2100 µg/mL; in series [5] (organic solvent or mixture, Ethanol) it was below 1900 µg/mL; in series [5] (organic solvent or mixture, Ethyl acetate), below 2000 µg/mL; in series [5] (organic solvent or mixture, Isopropanol), below 2000 µg/mL; in series [5] (organic solvent or mixture, Isopropyl acetate) it was below 2000 µg/mL; in series [5] (organic solvent or mixture, Methanol), below 1900 µg/mL. In addition, the solubility in series [5] (organic solvent or mixture, Methyl isobutyl ketone) is below 2000 µg/mL; in series [5] (organic solvent or mixture, Methyl tert-butyl ether), below 2000 µg/mL; in series [5] (organic solvent or mixture, Tetrahydrofuran) it was below 2000 µg/mL; in series [5] (organic solvent or mixture, Toluene) it was below 2000 µg/mL; in series [5] (organic solvent or mixture, n-Butanol), below 2000 µg/mL; in series [5] (organic solvent or mixture, n-Heptane), below 2000 µg/mL. The solubility in series [5] (Water) lay in the range of 10200 to 20400 µg/mL (≈ 26.7 to 53.4 mM). Further, the thermal stability entry in series [6] (TGA) is reported as “good thermal stability”. In series [6] (heated to 194.61° C.), this compound had a TGA weight loss of 0.5689%.

The values are drawn from patent publication US11180501B2, “Crystal form of β-lactamase inhibitor and preparation method therefor” (priority 2017, dated 2021).
